From US10577349B2 (Sanford Burnham Prebys Medical Discovery Institute, priority 2015, dated 2020)

Experiments:
[1] = biological target: EmCV Cap-dependent translation; assay: In vitro translation assay, FF-EmCV-Ren construct, cap-dependent (FF luciferase); format: biochemical, rabbit reticulocyte lysates
How it was run: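 Luminescence read-out: firefly signal reports cap-dependent and Renilla signal IRES-dependent translation from FF-IRES-Ren bicistronic RNA in rabbit reticulocyte lysate. Lysate was pre-incubated with compound 1 h at room temperature before adding RNA and translating 2 h at 30° C.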

[2] = tested on: UACC903 and WM1346 cell lines; assay: Reverse phase protein array analysis (RPPA), average of both cell lines; format: cell-based, human
Experimental: (§1) UACC903 and WM1346 cells were treated with DMSO (controls) or 1 μM Compound 38 for 24 h in triplicate. Cells were lysed with lysis buffer (1% Triton X-100, 50 mM HEPES, pH 7.4, 150 mM NaCl, 1.5 mM MgCl2, 1 mM EGTA, 100 mM NaF, 10 mM Na pyrophosphate, 1 mM Na3VO4, 10% glycerol, with freshly added protease and phosphatase inhibitors) and centrifuged at 13,000 g for 20 minutes. Denatured protein lysates containing the same amount of protein were then subjected to RPPA analysis at the RPPA Core Facility, Md. Anderson Cancer Center, as previously described (Tibes. R., et al. Reverse phase protein array: validation of a novel proteomic technology and utility for analysis of primary leukemia specimens and hematopoietic stem cells. Molecular cancer therapeutics 5, 2512-2521 (2006)),
(§2) A reverse phase protein array (RPPA) analysis of BRAF- and NRAS-mutant melanomas was performed to identify protein networks affected by Compound 38 (Table 4).

[3] = tested on: UACC903 (BRAF mutant) cell line; assay: Reverse phase protein array analysis (RPPA), UACC903; format: cell-based, human; details: UACC903, 1 μM, 24 h
Experimental: as §1, §2

[4] = tested on: A375; assay: 48 h Cytotoxicity A375; format: cell-based; details: Homo sapiens, A-375
[5] = tested on: parental and BRAFi-resistant melanoma cultures (A375, WM793, Lu1205); assay: 2D growth and colony-forming efficiency in parental and BRAFi-resistant melanoma cultures; format: cell-based, human; details: parental (sensitive) and BRAFi-resistant cultures
Experimental: For the colony formation assay, cells were plated in triplicate at 500 cells/well in 6-well plates and grown for 16 h before compounds were added for 1-2 weeks, depending on cell line. Colonies were stained with Accustain Crystal Violet solution (Sigma-Aldrich) for 30 min. Plates were rinsed with water, and colonies (>50 cells per clone) were counted. Colony formation efficiency was calculated relative to the number of colonies in control (DMSO)-treated wells. For soft agar assays, melanoma cells were mixed with agar at a final concentration of 0.35% and layered on top of 0.7% agar in 6-well plates. Media supplemented with different compounds was added to plates and changed once per week. After 4 weeks, colonies were counted in 10 random high-power fields.
To confirm the effect of Compound 38 on the eIF4F complex in BRAFi resistant cultures on neoplastic growth, Compound 38 effectiveness on their two-dimensional (2D) growth in vitro was assessed. […] Parental and BRAFi-resistant NF1-mutant melanomas (A) were monitored for their response to Compound 38 at the indicated concentrations and for their ability to form CFE (B) (A375: FIG. 16A and FIG. 16B, WM793: FIG. 17A and FIG. 17B, Lu1205: FIG. 18A and FIG. 18B). Effectiveness of Compound 38 in NF1-mutant melanoma was further confirmed in primary cultures (FIG. 19A and FIG. 19B).

O=C(/C=C/c1cncc(F)c1)c1c(-c2ccccc2)c2cc(Cl)ccc2[nH]c1=O [Compound 38, 6-Chloro-3-[3-(5-fluoro-pyridin-3-yl)-acryloyl]-4-phenyl-1H-quinolin-2-one]
IC50 [1]: 2000 to 10000 nM | Ratio [Compound 38/DMSO] A-Raf, Average [2]: 0.9 | Ratio [Compound 38/DMSO] AR, Average [2]: 0.82 | Ratio [Compound 38/DMSO] ATM, Average [2]: 0.81 | Ratio [Compound 38/DMSO] ATR, Average [2]: 0.80 | Ratio [Compound 38/DMSO] BRCA2, Average [2]: 0.93 | Ratio [Compound 38/DMSO] C-Raf, Average [2]: 0.92 | Ratio [Compound 38/DMSO] Chk1, Average [2]: 0.91 | Ratio [Compound 38/DMSO] Ets-1, Average [2]: 0.92 | Ratio [Compound 38/DMSO] GCN5L2, Average [2]: 0.87 | Ratio [Compound 38/DMSO] INPP4b, Average [2]: 0.9 | Ratio [Compound 38/DMSO] MSH6, Average [2]: 0.77 | Ratio [Compound 38/DMSO] PI3K-p85, Average [2]: 0.95 | Ratio [Compound 38/DMSO] PI3K-p110-alpha, Average [2]: 0.95 | Ratio [Compound 38/DMSO] Rad51, Average [2]: 0.85 | Ratio [Compound 38/DMSO] Raptor, Average [2]: 0.86 | Ratio [Compound 38/DMSO] Rictor_pT1135, Average [2]: 0.87 | Ratio [Compound 38/DMSO] S6_pS235_S236, Average [2]: 0.67 | Ratio [Compound 38/DMSO] S6_pS240_S244, Average [2]: 0.63 | Ratio [Compound 38/DMSO] Stat5a, Average [2]: 0.76 | Ratio [Compound 38/DMSO] Tuberin, Average [2]: 0.65 | Ratio [Compound 38/DMSO] YB1, Average [2]: 0.73 | Ratio [Compound 38/DMSO] c-Kit, Average [2]: 0.90 | Ratio [Compound 38/DMSO] c-Myc, Average [2]: 0.76 | Ratio [Compound 38/DMSO] mTOR, Average [2]: 0.80 | Ratio [Compound 38/DMSO] mTOR_pS2448, Average [2]: 0.74 | Ratio [Compound 38/DMSO] p70-S6K_pT389, Average [2]: 0.81 | Ratio [Compound 38/DMSO] A-Raf [3]: 0.91 | Ratio [Compound 38/DMSO] AR [3]: 0.92 | Ratio [Compound 38/DMSO] ATM [3]: 0.79 | Ratio [Compound 38/DMSO] ATR [3]: 0.84 | Ratio [Compound 38/DMSO] BRCA2 [3]: 0.96 | Ratio [Compound 38/DMSO] C-Raf [3]: 0.92 | Ratio [Compound 38/DMSO] Chk1 [3]: 0.89 | Ratio [Compound 38/DMSO] Ets-1 [3]: 0.92 | Ratio [Compound 38/DMSO] GCN5L2 [3]: 0.88 | Ratio [Compound 38/DMSO] INPP4b [3]: 0.93 | Ratio [Compound 38/DMSO] MSH6 [3]: 0.76 | Ratio [Compound 38/DMSO] PI3K-p85 [3]: 0.93 | Ratio [Compound 38/DMSO] PI3K-p110-alpha [3]: 0.94 | Ratio [Compound 38/DMSO] Rad51 [3]: 0.93 | Ratio [Compound 38/DMSO] Raptor [3]: 0.86 | Ratio [Compound 38/DMSO] Rictor_pT1135 [3]: 0.84 | Ratio [Compound 38/DMSO] S6_pS235_S236 [3]: 0.63 | Ratio [Compound 38/DMSO] S6_pS240_S244 [3]: 0.61 | Ratio [Compound 38/DMSO] Stat5a [3]: 0.85 | Ratio [Compound 38/DMSO] Tuberin [3]: 0.62 | Ratio [Compound 38/DMSO] YB1 [3]: 0.77 | Ratio [Compound 38/DMSO] c-Kit [3]: 0.86 | Ratio [Compound 38/DMSO] c-Myc [3]: 0.72 | Ratio [Compound 38/DMSO] mTOR [3]: 0.90 | Ratio [Compound 38/DMSO] mTOR_pS2448 [3]: 0.72 | Ratio [Compound 38/DMSO] p70-S6K_pT389 [3]: 0.82 | IC50 [4]: < 2000 nM | Growth in 2D and colony-forming efficiency (CFE) [5]: effectively attenuated in both parental (sensitive) and resistant cultures
